Patent publication US20260256925A1, “INDAZOLE DERIVATIVES AS ESTROGEN RECEPTOR DEGRADERS” (REGENTS OF THE UNIVERSITY OF MICHIGAN, priority 2022, published 2026)

Tests used:
[1] = biological target: T1, ER (Homo sapiens, UniProt P03372); test: In-cell western blot analysis, relative ER percentage (compounds B1-B126); assay type: cell-based; conditions: ER degradation, 16 hours, read-out: ICW DC50
T1 construct: endogenous in cells; probably T47D or MCF-7
T1 sequence (P03372 1-595): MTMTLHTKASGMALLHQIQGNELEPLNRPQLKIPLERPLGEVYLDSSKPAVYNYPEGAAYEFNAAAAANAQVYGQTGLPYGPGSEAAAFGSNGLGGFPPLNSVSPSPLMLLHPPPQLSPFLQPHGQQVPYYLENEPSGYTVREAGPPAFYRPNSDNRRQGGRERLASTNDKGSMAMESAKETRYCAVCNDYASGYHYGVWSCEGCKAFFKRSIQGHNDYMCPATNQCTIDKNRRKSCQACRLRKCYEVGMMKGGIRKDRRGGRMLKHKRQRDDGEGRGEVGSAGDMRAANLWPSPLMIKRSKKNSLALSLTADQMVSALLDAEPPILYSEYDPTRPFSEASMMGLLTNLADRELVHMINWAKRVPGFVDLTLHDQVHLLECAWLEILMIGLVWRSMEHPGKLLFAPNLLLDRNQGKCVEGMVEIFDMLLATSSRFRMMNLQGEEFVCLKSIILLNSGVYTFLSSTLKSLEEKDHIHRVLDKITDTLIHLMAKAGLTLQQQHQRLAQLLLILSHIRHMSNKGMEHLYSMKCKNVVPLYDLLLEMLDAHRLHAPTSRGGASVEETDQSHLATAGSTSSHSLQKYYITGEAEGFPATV
Outline: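 Cells seeded at 40,000 or 10,000 per well overnight were treated with compound (final 0.5% DMSO) for 16 hours, then fixed with formaldehyde. ER was detected with primary antibodies and anti-rabbit-680/anti-mouse-800 secondaries on a CLX reader. Signal is expressed relative to untreated and DMSO wells set as 100%.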

[2] = Cell growth assay, WST-8 (compounds B1-B126); assay type: cell-based; conditions: 96 h; T47D cell line, WST-8, 4 days; read-out: Cell growth inhibition in T47D cell line IC50
Outline: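 Cells seeded at 1500/well overnight, treated one day later with compound doses for 4 days, then 10% WST-8 added for 2.5 h at 37° C in CO2. Absorbance at 450 nm, expressed relative to vehicle control over three independent repeats.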

SMILES	DC50 [1] [nM]	IC50 [2] [nM]
C[C@@H]1Cc2c(ccc3[nH]ncc23)[C@@H](c2ccc(N3CCC(CN4CCN(c5ccc6c(c5)CN(C5CCC(=O)NC5=O)C6=O)CC4)CC3)cn2)N1CC(F)(F)F (stereo partly drawn) [Compound B63, 3-(5-(4-((1-(6-((6S,8R)-8-methyl-7-(2,2,2-trifluoroethyl)-6,7,8,9-tetrahydro-3H-pyrazolo[4,3-f]isoquinolin-6-yl)pyridin-3-yl)piperidin-4-yl)methyl)piperazin-1-yl)-1-oxoisoindolin-2-yl)piperidine-2,6-dione]	< 10	< 1
COc1cc(N2CCC3(CC2)CC(CN2CCN4c5cc6c(cc5OC[C@H]4C2)C(=O)N(C2CCC(=O)NC2=O)C6)C3)ccc1[C@@H]1c2ccc3[nH]ncc3c2C[C@@H](C)N1CC(F)F (stereo partly drawn) [Compound B55, 3-((R)-3-((7-(4-((6S,8R)-7-(2,2-difluoroethyl)-8-methyl-6,7,8,9-tetrahydro-3H-pyrazolo[4,3-f]isoquinolin-6-yl)-3-methoxyphenyl)-7-azaspiro[3.5]nonan-2-yl)methyl)-8-oxo-1,2,3,4,4a,5,8,10-octahydro-9H-pyrazino[1′,2′:4,5][1,4]oxazino[2,3-f]isoindol-9-yl)piperidine-2,6-dione]	> 100	1 to 10
COc1cc(N2CCC3(CCN(C(=O)CN4Cc5cc6c(cc5C4)C(=O)N(C4CCC(=O)NC4=O)C6=O)CC3)CC2)ccc1[C@@H]1c2ccc3[nH]ncc3c2C[C@@H](C)N1CC(F)F (stereo partly drawn) [Compound B68, 6-(2-(9-(4-((6S,8R)-7-(2,2-difluoroethyl)-8-methyl-6,7,8,9-tetrahydro-3H-pyrazolo[4,3-f]isoquinolin-6-yl)-3-methoxyphenyl)-3,9-diazaspiro[5.5]undecan-3-yl)-2-oxoethyl)-2-(2,6-dioxopiperidin-3-yl)-6,7-dihydropyrrolo[3,4-f]isoindole-1,3(2H,5H)-dione]	< 10	1 to 10
C[C@@H]1Cc2c(ccc3[nH]ncc23)[C@@H](c2ccc(N3CCC4(CC3)CC(CN3CCN5c6ccc7c(c6OC[C@H]5C3)CN(C3CCC(=O)NC3=O)C7=O)CO4)cn2)N1CC(F)(F)F (stereo partly drawn) [Compound B91, 3-((5aR)-7-((8-(6-((6S,8R)-8-methyl-7-(2,2,2-trifluoroethyl)-6,7,8,9-tetrahydro-3H-pyrazolo[4,3-f]isoquinolin-6-yl)pyridin-3-yl)-1-oxa-8-azaspiro[4.5]decan-3-yl)methyl)-1-oxo-1,3,5,5a,6,7,8,9-octahydro-2H-pyrazino[1′,2′:4,5][1,4]oxazino[2,3-e]isoindol-2-yl)piperidine-2,6-dione]	< 10	1 to 10
C[C@@H]1Cc2c(ccc3[nH]ncc23)[C@@H](c2c(F)cc(N3CCN(CC(=O)N4CCN5c6cc7c(cc6OC[C@@H]5C4)C(=O)N(C4CCC(=O)NC4=O)C7)CC3)cc2F)N1CC(F)F (stereo partly drawn) [Compound B32, 3-((S)-3-(2-(4-(4-((6S,8R)-7-(2,2-difluoroethyl)-8-methyl-6,7,8,9-tetrahydro-3H-pyrazolo[4,3-f]isoquinolin-6-yl)-3,5-difluorophenyl)pipcrazin-1-yl)acetyl)-8-oxo-1,2,3,4,4a,5,8,10-octahydro-9H-pyrazino[1′,2′:4,5][1,4]oxazino[2,3-f]isoindol-9-yl)piperidine-2,6-dione]	< 10	< 1
C[C@@H]1Cc2c(ccc3[nH]ncc23)[C@@H](c2c(F)cc(N3CC4(CCN(CC(=O)N5CCN6c7cc8c(cc7OC[C@@H]6C5)C(=O)N(C5CCC(=O)NC5=O)C8)C4)C3)cc2F)N1CC(F)F (stereo partly drawn) [Compound B40, 3-((S)-3-(2-(2-(4-((6S,8R)-7-(2,2-difluoroethyl)-8-methyl-6,7,8,9-tetrahydro-3H-pyrazolo[4,3-f]isoquinolin-6-yl)-3,5-difluorophenyl)-2,6-diazaspiro[3.4]octan-6-yl)acetyl)-8-oxo-1,2,3,4,4a,5,8,10-octahydro-9H-pyrazino[1′,2′:4,5][1,4]oxazino[2,3-f]isoindol-9-yl)piperidine-2,6-dione]	< 10	< 1
C[C@@H]1Cc2c(ccc3[nH]ncc23)[C@@H](c2ccc(N3CCC4(CC3)CC(CN3CCC5(CC3)COc3c5ccc5c3CN(C3CCC(=O)NC3=O)C5=O)C4)cn2)N1CC(F)(F)F (stereo partly drawn) [Compound B60, 3-(1′-((7-(6-((6S,8R)-8-methyl-7-(2,2,2-trifluoroethyl)-6,7,8,9-tetrahydro-3H-pyrazolo[4,3-f]isoquinolin-6-yl)pyridin-3-yl)-7-azaspiro[3.5]nonan-2-yl)methyl)-6-oxo-6,8-dihydro-2H,7H-spiro[furo[2,3-e]isoindole-3,4′-piperidin]-7-yl)piperidine-2,6-dione]	< 10	< 1
C[C@@H]1Cc2c(ccc3[nH]ncc23)[C@@H](c2c(F)cc(N3CCC4(CN(C(=O)CN5CCN6c7cc8c(cc7OC[C@@H]6C5)C(=O)N(C5CCC(=O)NC5=O)C8)C4)C3)cc2F)N1CC(F)F (stereo partly drawn) [Compound B37, 3-((S)-3-(2-(6-(4-((6S,8R)-7-(2,2-difluoroethyl)-8-methyl-6,7,8,9-tetrahydro-3H-pyrazolo[4,3-f]isoquinolin-6-yl)-3,5-difluorophenyl)-2,6-diazaspiro[3.4]octan-2-yl)-2-oxoethyl)-8-oxo-1,2,3,4,4a,5,8,10-octahydro-9H-pyrazino[1′,2′:4,5][1,4]oxazino[2,3-f]isoindol-9-yl)piperidine-2,6-dione]	< 10	< 1
COc1cc(N2CCC3(CC2)CC(CN2CCN4c5cc6c(cc5OC[C@@H]4C2)C(=O)N(C2CCC(=O)NC2=O)C6)C3)ccc1[C@@H]1c2ccc3[nH]ncc3c2C[C@@H](C)N1CC(F)F (stereo partly drawn) [Compound B54, 3-((S)-3-((7-(4-((6S,8R)-7-(2,2-difluoroethyl)-8-methyl-6,7,8,9-tetrahydro-3H-pyrazolo[4,3-f]isoquinolin-6-yl)-3-methoxyphenyl)-7-azaspiro[3.5]nonan-2-yl)methyl)-8-oxo-1,2,3,4,4a,5,8,10-octahydro-9H-pyrazino[1′,2′:4,5][1,4]oxazino[2,3-f]isoindol-9-yl)piperidine-2,6-dione]	< 10	1 to 10
C[C@@H]1Cc2c(ccc3[nH]ncc23)[C@@H](c2c(F)cc(N3CCC(CN4CCC5(CC4)COc4c5ccc5c4CN(C4CCC(=O)NC4=O)C5=O)CC3)cc2F)N1CC(F)F (stereo partly drawn) [Compound B114, 3-(1′-((1-(4-((6S,8R)-7-(2,2-difluoroethyl)-8-methyl-6,7,8,9-tetrahydro-3H-pyrazolo[4,3-f]isoquinolin-6-yl)-3,5-difluorophenyl)piperidin-4-yl)methyl)-6-oxo-6,8-dihydro-2H,7H-spiro[furo[2,3-e]isoindole-3,4′-piperidin]-7-yl)piperidine-2,6-dione]	> 100	< 1
C[C@@H]1Cc2c(ccc3[nH]ncc23)[C@@H](c2ccc(N3CC4(CCN(C(=O)CN5CCC6(CC5)COc5c6ccc6c5CN(C5CCC(=O)NC5=O)C6=O)CC4)C3)cn2)N1CC(F)(F)F (stereo partly drawn) [Compound B64, 3-(1′-(2-(2-(6-((6S,8R)-8-methyl-7-(2,2,2-trifluoroethyl)-6,7,8,9-tetrahydro-3H-pyrazolo[4,3-f]isoquinolin-6-yl)pyridin-3-yl)-2,7-diazaspiro[3.5]nonan-7-yl)-2-oxoethyl)-6-oxo-6,8-dihydro-2H,7H-spiro[furo[2,3-e]isoindole-3,4′-piperidin]-7-yl)piperidine-2,6-dione]	< 10	< 1
C[C@@H]1Cc2c(ccc3[nH]ncc23)[C@@H](c2ccc(N3CCC4(CC3)CC(CN3CCN5c6cc7c(cc6N(C)C[C@@H]5C3)C(=O)N(C3CCC(=O)NC3=O)C7)C4)cn2)N1CC(F)(F)F (stereo partly drawn) [Compound B61, 3-((S)-6-methyl-3-((7-(6-((6S,8R)-8-methyl-7-(2,2,2-trifluoroethyl)-6,7,8,9-tetrahydro-3H-pyrazolo[4,3-f]isoquinolin-6-yl)pyridin-3-yl)-7-azaspiro[3.5]nonan-2-yl)methyl)-8-oxo-2,3,4,4a,5,6,8,10-octahydropyrazino[1,2-a]pyrrolo[3,4-g]quinoxalin-9(1H)-yl)piperidine-2,6-dione]	< 10	< 1
COc1cc(N2CC3(CCC(CN4CCN5c6ccc7c(c6OC[C@H]5C4)CN(C4CCC(=O)NC4=O)C7=O)CC3)C2)ccc1[C@@H]1c2ccc3[nH]ncc3c2C[C@@H](C)N1CC(F)F (stereo partly drawn) [Compound B84, 3-((R)-7-((2-(4-((6S,8R)-7-(2,2-difluoroethyl)-8-methyl-6,7,8,9-tetrahydro-3H-pyrazolo[4,3-f]isoquinolin-6-yl)-3-methoxyphenyl)-2-azaspiro[3.5]nonan-7-yl)methyl)-1-oxo-1,3,5,5a,6,7,8,9-octahydro-2H-pyrazino[1′,2′:4,5][1,4]oxazino[2,3-e]isoindol-2-yl)piperidine-2,6-dione]	> 100	> 10
